# Measurements published in the NIST ThermoML archive (doi:10.1021/je800637t).
# Numbers after ± are expanded uncertainties.
# Legend:
# [1] = refractive index (Na D-line) (dimensionless); mn = molality of the nth substance listed, in mol/kg; settings: 100.8 kPa, Liquid, Standard Abbe refractometry
# [2] = mn = molality of the nth substance listed, in mol/kg; settings: 100.8 kPa, Liquid; for viscosity: Cone and plate viscometry; for electrical conductivity: Kyoto model CM-117 conductivity meter; for mass density: Vibrating tube method
compound,measurement,setting,value
O=[N+]([O-])[O-].[K+] [potassium nitrate] + O,refractive index,"[1]; 298.15 K, m1 = 0.3799",1.33593 ± 0.0004
same,refractive index,"[1]; 298.15 K, m1 = 0.76",1.33907 ± 0.0004
same,refractive index,"[1]; 298.15 K, m1 = 1.14",1.34205 ± 0.0004
same,refractive index,"[1]; 298.15 K, m1 = 1.52",1.34488 ± 0.0004
same,refractive index,"[1]; 298.15 K, m1 = 1.9",1.34751 ± 0.0004
same,refractive index,"[1]; 298.15 K, m1 = 2.28",1.35009 ± 0.0004
same,refractive index,"[1]; 298.15 K, m1 = 2.66",1.35253 ± 0.0004
same,refractive index,"[1]; 298.15 K, m1 = 3.04",1.35479 ± 0.0004
same,refractive index,"[1]; 298.15 K, m1 = 3.42",1.35704 ± 0.0004
same,refractive index,"[1]; 298.15 K, m1 = 3.821",1.35915 ± 0.0004
same,refractive index,"[1]; 313.15 K, m1 = 0.3799",1.33384 ± 0.0004
same,refractive index,"[1]; 313.15 K, m1 = 0.76",1.33687 ± 0.0004
same,refractive index,"[1]; 313.15 K, m1 = 1.14",1.33975 ± 0.0004
same,refractive index,"[1]; 313.15 K, m1 = 1.52",1.34248 ± 0.0004
same,refractive index,"[1]; 313.15 K, m1 = 1.9",1.345 ± 0.0004
same,refractive index,"[1]; 313.15 K, m1 = 2.28",1.34761 ± 0.0004
same,refractive index,"[1]; 313.15 K, m1 = 2.66",1.34991 ± 0.0004
same,refractive index,"[1]; 313.15 K, m1 = 3.04",1.35227 ± 0.0004
same,refractive index,"[1]; 313.15 K, m1 = 3.42",1.35443 ± 0.0004
same,refractive index,"[1]; 313.15 K, m1 = 3.8",1.35643 ± 0.0004
same,refractive index,"[1]; 313.15 K, m1 = 4.581",1.36051 ± 0.00041
same,refractive index,"[1]; 313.15 K, m1 = 5.341",1.36426 ± 0.00041
same,refractive index,"[1]; 313.15 K, m1 = 6.273",1.36812 ± 0.00041
same,viscosity,"[2]; 298.15 K, m1 = 0.3799",0.879 ± 0.008 mPa·s
same,viscosity,"[2]; 298.15 K, m1 = 0.76",0.87 ± 0.011 mPa·s
same,viscosity,"[2]; 298.15 K, m1 = 1.14",0.869 ± 0.008 mPa·s
same,viscosity,"[2]; 298.15 K, m1 = 1.52",0.872 ± 0.012 mPa·s
same,viscosity,"[2]; 298.15 K, m1 = 1.9",0.881 ± 0.008 mPa·s
same,viscosity,"[2]; 298.15 K, m1 = 2.28",0.889 ± 0.008 mPa·s
same,viscosity,"[2]; 298.15 K, m1 = 2.66",0.901 ± 0.011 mPa·s
same,viscosity,"[2]; 298.15 K, m1 = 3.04",0.914 ± 0.014 mPa·s
same,viscosity,"[2]; 298.15 K, m1 = 3.42",0.931 ± 0.008 mPa·s
same,viscosity,"[2]; 298.15 K, m1 = 3.821",0.95 ± 0.009 mPa·s
same,electrical conductivity,"[2]; 298.15 K, m1 = 0.3799",0.000381 ± 5e-06 S/m
same,electrical conductivity,"[2]; 298.15 K, m1 = 0.76",0.000705 ± 8e-06 S/m
same,electrical conductivity,"[2]; 298.15 K, m1 = 1.14",0.000985 ± 1.2e-05 S/m
same,electrical conductivity,"[2]; 298.15 K, m1 = 1.52",0.00122 ± 1.5e-05 S/m
same,electrical conductivity,"[2]; 298.15 K, m1 = 1.9",0.00144 ± 1.7e-05 S/m
same,electrical conductivity,"[2]; 298.15 K, m1 = 2.28",0.00162 ± 1.9e-05 S/m
same,electrical conductivity,"[2]; 298.15 K, m1 = 2.66",0.00179 ± 2.1e-05 S/m
same,electrical conductivity,"[2]; 298.15 K, m1 = 3.04",0.00194 ± 2.3e-05 S/m
same,electrical conductivity,"[2]; 298.15 K, m1 = 3.42",0.00211 ± 2.5e-05 S/m
same,electrical conductivity,"[2]; 298.15 K, m1 = 3.821",0.00223 ± 2.7e-05 S/m
same,mass density,"[2]; 298.15 K, m1 = 0.3799",1020.03 ± 0.09 kg/m3
same,mass density,"[2]; 298.15 K, m1 = 0.76",1041.91 ± 0.06 kg/m3
same,mass density,"[2]; 298.15 K, m1 = 1.14",1062.91 ± 0.08 kg/m3
same,mass density,"[2]; 298.15 K, m1 = 1.52",1083.04 ± 0.12 kg/m3
same,mass density,"[2]; 298.15 K, m1 = 1.9",1102.4 ± 0.12 kg/m3
same,mass density,"[2]; 298.15 K, m1 = 2.28",1121.03 ± 0.09 kg/m3
same,mass density,"[2]; 298.15 K, m1 = 2.66",1139.02 ± 0.1 kg/m3
same,mass density,"[2]; 298.15 K, m1 = 3.04",1156.32 ± 0.13 kg/m3
same,mass density,"[2]; 298.15 K, m1 = 3.42",1173.06 ± 0.12 kg/m3
same,mass density,"[2]; 298.15 K, m1 = 3.821",1189.24 ± 0.13 kg/m3
same,viscosity,"[2]; 313.15 K, m1 = 0.3799",0.652 ± 0.01 mPa·s
same,viscosity,"[2]; 313.15 K, m1 = 0.76",0.654 ± 0.007 mPa·s
same,viscosity,"[2]; 313.15 K, m1 = 1.14",0.657 ± 0.008 mPa·s
same,viscosity,"[2]; 313.15 K, m1 = 1.52",0.665 ± 0.012 mPa·s
same,viscosity,"[2]; 313.15 K, m1 = 1.9",0.673 ± 0.008 mPa·s
same,viscosity,"[2]; 313.15 K, m1 = 2.28",0.682 ± 0.009 mPa·s
same,viscosity,"[2]; 313.15 K, m1 = 2.66",0.693 ± 0.01 mPa·s
same,viscosity,"[2]; 313.15 K, m1 = 3.04",0.703 ± 0.008 mPa·s
same,viscosity,"[2]; 313.15 K, m1 = 3.42",0.716 ± 0.01 mPa·s
same,viscosity,"[2]; 313.15 K, m1 = 3.8",0.733 ± 0.014 mPa·s
same,viscosity,"[2]; 313.15 K, m1 = 4.581",0.76 ± 0.008 mPa·s
same,viscosity,"[2]; 313.15 K, m1 = 5.341",0.803 ± 0.009 mPa·s
same,viscosity,"[2]; 313.15 K, m1 = 6.273",0.844 ± 0.011 mPa·s
same,electrical conductivity,"[2]; 313.15 K, m1 = 0.3799",0.000528 ± 6e-06 S/m
same,electrical conductivity,"[2]; 313.15 K, m1 = 0.76",0.000954 ± 1.1e-05 S/m
same,electrical conductivity,"[2]; 313.15 K, m1 = 1.14",0.00129 ± 1.5e-05 S/m
same,electrical conductivity,"[2]; 313.15 K, m1 = 1.52",0.00159 ± 1.9e-05 S/m
same,electrical conductivity,"[2]; 313.15 K, m1 = 1.9",0.00184 ± 2.2e-05 S/m
same,electrical conductivity,"[2]; 313.15 K, m1 = 2.28",0.00208 ± 2.5e-05 S/m
same,electrical conductivity,"[2]; 313.15 K, m1 = 2.66",0.00227 ± 2.7e-05 S/m
same,electrical conductivity,"[2]; 313.15 K, m1 = 3.04",0.00248 ± 3e-05 S/m
same,electrical conductivity,"[2]; 313.15 K, m1 = 3.42",0.00263 ± 3.2e-05 S/m
same,electrical conductivity,"[2]; 313.15 K, m1 = 3.8",0.00278 ± 3.3e-05 S/m
same,electrical conductivity,"[2]; 313.15 K, m1 = 4.581",0.00308 ± 3.7e-05 S/m
same,electrical conductivity,"[2]; 313.15 K, m1 = 5.341",0.0033 ± 4e-05 S/m
same,electrical conductivity,"[2]; 313.15 K, m1 = 6.273",0.00357 ± 4.3e-05 S/m
same,mass density,"[2]; 313.15 K, m1 = 0.3799",1014.52 ± 0.07 kg/m3
same,mass density,"[2]; 313.15 K, m1 = 0.76",1035.85 ± 0.05 kg/m3
same,mass density,"[2]; 313.15 K, m1 = 1.14",1056.36 ± 0.1 kg/m3
same,mass density,"[2]; 313.15 K, m1 = 1.52",1076.08 ± 0.07 kg/m3
same,mass density,"[2]; 313.15 K, m1 = 1.9",1095.07 ± 0.09 kg/m3
same,mass density,"[2]; 313.15 K, m1 = 2.28",1113.37 ± 0.13 kg/m3
same,mass density,"[2]; 313.15 K, m1 = 2.66",1131.04 ± 0.1 kg/m3
same,mass density,"[2]; 313.15 K, m1 = 3.04",1148.05 ± 0.13 kg/m3
same,mass density,"[2]; 313.15 K, m1 = 3.42",1164.53 ± 0.15 kg/m3
same,mass density,"[2]; 313.15 K, m1 = 3.8",1180.49 ± 0.12 kg/m3
same,mass density,"[2]; 313.15 K, m1 = 4.581",1211.11 ± 0.15 kg/m3
same,mass density,"[2]; 313.15 K, m1 = 5.341",1239.46 ± 0.18 kg/m3
same,mass density,"[2]; 313.15 K, m1 = 6.273",1271.3 ± 0.2 kg/m3
